Results on two compounds are retold here after publication doi:10.1101/2025.08.13.670122v1 (bioRxiv, 2025).

For series [1], the target named is T1, AT1R (Homo sapiens, UniProt P30556).
T1 sequence (P30556 1-359): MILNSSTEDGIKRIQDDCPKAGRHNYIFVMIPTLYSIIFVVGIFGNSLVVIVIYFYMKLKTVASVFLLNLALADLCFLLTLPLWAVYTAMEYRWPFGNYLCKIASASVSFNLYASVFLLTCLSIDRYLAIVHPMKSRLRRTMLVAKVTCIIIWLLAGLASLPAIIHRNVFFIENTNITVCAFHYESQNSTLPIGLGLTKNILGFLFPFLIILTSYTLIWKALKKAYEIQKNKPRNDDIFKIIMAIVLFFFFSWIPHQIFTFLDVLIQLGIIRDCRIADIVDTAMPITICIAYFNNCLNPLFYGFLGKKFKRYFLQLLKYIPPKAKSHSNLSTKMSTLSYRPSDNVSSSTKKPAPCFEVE
Put plainly: β-arrestin2 recruitment BRET (β-arrestin2-RLucII/rGFP-CAAX) in HEK293 cells expressing AT1R. The conditions noted are these: for Emax βarr2 (% AngII): HEK293/AT1R, β-arrestin2 BRET, response of the ligand at 10 μM, normalised to AngII; for EC50: HEK293 cells transiently expressing AT1R, β-arrestin2-RLucII/rGFP-CAAX BRET, read 10 min after ligand, mean ± SEM of at least three to five independent experiments, SEM, read-out: EC50 βarr2. On the set-up: expressed in transfected cells; host or cells: HEK293 cells, transient PEI transfection. The series is classed as cell-based. The source says: (§1) We utilized a clonal cell line HEK293, referred to hereafter as HEK293 cells, which has been previously described.[7],[8] As a gracious gift from A. Inoue (Tohoku University, Sendai, Miyagi, Japan), CRISPR Gαq/11 and Gα12/13 knockout cell lines (ΔGq/11 and ΔG12/13, respectively), were derived as previously explained.[48] In brief, a CRISPR-Cas9 system was used to target either GNAQ and GNA11 or GNA12 and GNA13 genes in HEK293T cells simultaneously to generate the Gαq/11 and Gα12/13 knockout cell lines. For the production of adenovirus, we utilized HEK293A cells. All cells were grown in DMEM supplemented with 10% FBS and Penicillin-Streptomycin-L-Glutamine (10000 IU penicillin, 10000 µg/mL Streptomycin, 200 mM L-Glutamine) at 37°C in T175 flasks under a 5% CO2 humidified chamber. Periodic testing was carried out for mycoplasma contamination (ABM™, Mycoplasma PCR Detection kit). For all biosensors used, cells underwent transfection with the PEI reagent, employing a PEI:DNA ratio of 3:1. For the Gαq biosensor, HEK293 cells were transfected with the plasmids coding for Gαq-RLucII (120 ng), Gβ1 (3000 ng), Gγ1-GFP10 (3000 ng), human AT1 (3000 ng) and Salmon sperm DNA (SSD) (880 ng). For the β-arrestin2 recruitment assay, HEK293 cells were transfected with the plasmids coding for 120 ng β-arrestin-2-RLucII, 3000 ng AT1, 3000 ng rGFP-CAAX, and 3880 ng SSD. For the measurement of PKC, HEK293 cells were transfected with 3000 ng AT1, 600 ng PKC-c1b, and 6400 ng SSD. […] 100 µL of the cell/DNA mixture was added to white 96-well plates and incubated at 37°C at 5% CO2 for 48 h. For the Rho assay, ΔG12/13 cells were seeded at a density of 9,000 cells per well in poly-ornithine-coated white 96-well plates and transfected the following day. In brief, 1 μg of total DNA in 100 μL of PBS was mixed with 100 μL of PBS containing 3 μL of 1 mg/mL PEI. For Rho signaling, 150 ng of AT1R DNA with 25 ng of PKN-RBD-RlucII [8], and 100 ng of rGFP-CAAX were used. Empty pcDNA was used to reach 1 µg of the total DNA amount in 100 μL of PBS. The DNA was then mixed with 100 μL of PBS containing 3 μL of 1 mg/mL PEI. After a 20-min incubation, the DNA/PEI complexes were dispensed into cells in 96-well plates (15 µL/well), and the experiment was carried out 48 h post-transfection.
On the day of the experiment, each well was washed with 80 µL of Tyrode’s buffer (140 mM NaCl, 2.7 mM KCl, 1 mM CaCl2, 12 mM NaHCO3, 5.6 mM D-glucose, 0.5 mM MgCl2, 0.37 mM NaH2PO4, 25 mM Hepes (pH 7.4)). This was followed by incubation for 1 h in Tyrode’s buffer at room temperature. For the Gαq, β-arrestin-2, and PKC biosensors used in HEK293 cells, coelenterazine 400A (at a final concentration of 5 μM) was added 10 min before stimulation. Cells were then stimulated with increasing doses of the indicated ligand, and BRET signals were measured using a Tristar2 (Berthold) microplate reader 10 min later. For the PKC and Rho biosensors in VSMCs, and the Rho biosensor in ΔG12/13 cells, cells were similarly stimulated with ligands for 1 min, 1 min 30 s, and 3 min, respectively, before BRET measurement. […] BRET signals were then measured using a Synergy2 (BioTek) microplate reader. The applied filter set was 410/80 nm and 515/30 nm, designed to detect the light emissions of RlucII (Renilla luciferase) (donor) and rGFP (acceptor), respectively.

The nature of the next series: Plasma stability. It counts as in vitro ADME. The conditions noted are these: male Sprague-Dawley rat plasma, 6 μL of 1 mM compound (10% DMSO) in 27 μL plasma, 37°C, 0-24 h, UPLC-MS, one-phase decay, mean ± SEM of at least three experiments, read-out: Plasmatic half-life t1/2 (±SEM). As to the method: The degradation was quenched by adding 140 μL of 1% formic acid in an acetonitrile-ethanol (1:1) solution containing 0.25 mM of N,N-dimethylbenzamide (used as an internal standard). This mixture was initially transferred to an Impact Protein Precipitation filter plate (Phenomenex, California), the filtrates from which were subsequently collected in a second 96-well UPLC plate. Both plates were centrifuged at 500 g for 10 min while maintaining a temperature of 4°C. The filtrates were then diluted with 30 μL of distilled water and processed for analysis using an Acquity UPLC-MS system class H (using an Acquity UPLC protein BEH C18 column that measured 2.1 mm × 50 mm and had 1.7 μm particles with pores 130 Å in width). The peptide half-life, derived from the degradation curve, was calculated using the exponential one-phase decay function in GraphPad Prism 9. Degradation was estimated by comparing the mass spectrum at each point with those at the zero-minute mark. The data were presented as a mean ± SEM of at least three unique experiments, each performed in singlicate.

Series [2] has as its target T1, AT1R. The experiment in a line: PKC BRET sensor in HEK293 cells expressing AT1R. Particulars: for Emax PKC (% AngII): PKC BRET sensor, response at 10 μM, normalised to AngII; for EC50: PKC-c1b BRET sensor, read 10 min after ligand, mean ± SEM of at least three to five independent experiments, SEM. On the set-up: expressed in transfected cells; host or cells: HEK293 cells, transient PEI transfection. The series is classed as cell-based.
From the text: as §1
On the day of the experiment, each well was washed with 80 µL of Tyrode’s buffer (140 mM NaCl, 2.7 mM KCl, 1 mM CaCl2, 12 mM NaHCO3, 5.6 mM D-glucose, 0.5 mM MgCl2, 0.37 mM NaH2PO4, 25 mM Hepes (pH 7.4)). This was followed by incubation for 1 h in Tyrode’s buffer at room temperature. […] Cells were then stimulated with increasing doses of the indicated ligand, and BRET signals were measured using a Tristar2 (Berthold) microplate reader 10 min later. […] BRET signals were then measured using a Synergy2 (BioTek) microplate reader. […]
For orientation: BRET reads energy transfer from a luciferase to a nearby fluorophore.

The term EC50 denotes the concentration needed to bring the measured effect to its halfway point. Consider `CC[C@H](C)[C@H](NC(=O)[C@H](Cc1ccc(O)cc1)NC(=O)[C@@H](NC(=O)[C@H](CCCNC(=N)N)NC(=O)[C@@H](N)CC(=O)O)C(C)C)C(=O)N[C@@H](Cc1c[nH]cn1)C(=O)N1CCC[C@H]1C(=O)N[C@@H](Cc1ccc(OC)cc1)C(=O)O` [compound 11], for which, on AT1R [1], the “Emax βarr2 (% AngII)” value was 105 % AngII and the EC50 came out at 0.36 ± 0.1 nM. Further, the half-life at 182 µM in the series “Plasma stability” is 33 ± 4 min. Besides, at AT1R [2], the “Emax PKC (% AngII)” value is recorded as 105 % AngII and the EC50 came out at 0.66 ± 0.13 nM.

In the case of `CC[C@H](C)[C@H](NC(=O)[C@H](Cc1ccc(O)cc1)NC(=O)[C@@H](NC(=O)[C@H](CCCNC(=N)N)NC(=O)[C@@H](N)CC(=O)O)C(C)C)C(=O)N[C@@H](Cc1c[nH]cn1)C(=O)N1CCC[C@H]1C(=O)N[C@@H](Cc1ccc(OCc2ccccc2)cc1)C(=O)O` [compound 12], at AT1R [1], the “Emax βarr2 (% AngII)” value is reported as 89 % AngII and the EC50 was found to be 2.5 ± 0.4 nM. Moreover, the half-life at 182 µM in “Plasma stability” amounted to 32 ± 3 min. Also, on AT1R [2], the “Emax PKC (% AngII)” value is reported as 51 % AngII and the EC50 is 4.8 ± 3.4 nM.
